Patent US20220408724A1, “METHOD FOR CONTROLLING METABOLISM OF BRANCHED FATTY ACID” (KAO CORPORATION, priority 2019, published 2022)

Key:
Assay type in all cases: cell-based
[1] = tested on: Rhodotorula mucilaginosa; test: Suppression of metabolite 4-methylhexanoic acid from 14-methylhexadecanoic acid; details: agent 250 μg/fabric g
Protocol: The extraction liquid was mixed with (a 1000 ppm methanol solution of) an ADAM reagent of Funakoshi Co., Ltd. at 1:1 (volume ratio) and left overnight under room temperature and dark place conditions. […] The quantification conditions are as follows. […] The higher a numerical value thereof is, the more the metabolism is suppressed. Note that the metabolite suppression rate was determined by the following formula: […] In this example, Rhodotorula mucilaginosa (strain isolated from clothing) was used as a microorganism. Further, in this example, the bacteria were precultured under conditions of a PDA agar medium (Difco), 30° C.; and 48 hours. Further, in this example, a bacterial suspension of 10^7 (CFU/ml) prepared by using a PDB liquid medium (Difco) diluted to 1/10 with ion exchange water was used as a bacterial suspension.

[2] = tested on: Rhodotorula mucilaginosa; test: Suppression of metabolism of 14-methylhexadecanoic acid on cotton fabric; details: agent 250 μg/fabric g
Protocol: (§1) A methanol solution in which 14-methylhexadecanoic acid (SIGMA-ALDRICH) was dissolved was added dropwise to 3 cm×3 cm pieces of sterilized plain-weave cotton fabric to make it adhered to the fabric. The adhesion amount of 14-methylhexadecanoic acid was set to 10 μg per piece of the plain-weave cotton fabric (100 μg/fabric g).
(§2) Further, a methanol solution in which each metabolism controlling agent was dissolved was prepared and added dropwise to the fabric to which 14-methylhexadecanoic acid adhered, and it was thereafter dried for an hour. This fabric was placed in a sterilized screw tube bottle No. 3 (Maruemu Corporation) and 100 μl of the bacterial suspension was inoculated thereto, and culture was carried out under 37° C.; conditions for 21 hours.
(§3) 3 ml of methanol was added to the screw tube bottle after culture, and extraction was carried out under ultrasonic irradiation for 30 minutes (20° C.). The extraction liquid was mixed with a (trimethylsilyl)diazomethane hexane solution (FUJIFILM Wako Pure Chemical Corporation) at 9:1 (volume ratio) and left overnight under room temperature and dark place conditions. After that, 14-methylhexadecanoic acid remaining on the fabric was quantified by GC. The quantification conditions for GC are as follows. • GC: Agilent 7890A • GC column: Agilent DB-1 30 m×250 μm×0.25 μm • Temperature rise condition: 50° C. (held for 3 minutes)-(10° C./min)-300° C. (held for 5 minutes) • Sample injection volume: 1 μl • Split ratio: 1:12 • Detector: FID
(§4) The residual amount of 14-methylhexadecanoic acid after culture on the fabric to which the metabolism controlling agent was added was quantified, and the ratio of the residual amount to that of 14-methylhexadecanoic acid in the case of adding no metabolism controlling agent (control) was calculated as a metabolism suppression rate (%). The higher a numerical value thereof is, the more the metabolism is suppressed. Note that the metabolism suppression rate was determined by the following formula:
(§5) Metabolism suppression rate(%)=[1−(100−A)/(100−B)]×100 • A: residual amount of 14-methylhexadecanoic acid of example or comparative example (μg/fabric g) • B: residual amount of 14-methylhexadecanoic acid of control (μg/fabric g)
The metabolism of 14-methylhexadecanoic acid by yeast of the genus Rhodotorula was tested in the same manner as in example 1.
In this example, Rhodotorula mucilaginosa (strain isolated from clothing) was used as a microorganism.
Further, in this example, the bacteria were precultured under conditions of a PDA agar medium (Difco), 30° C.; and 48 hours.
Further, in this example, a bacterial suspension of 10^7 (CFU/ml) prepared by using a PDB liquid medium (Difco) diluted to 1/10 with ion exchange water was used as a bacterial suspension.

[3] = tested on: Escherichia coli (NBRC3972); test: as above
Protocol: as §1, §2, §3, §4, §5
(§6) The metabolism of 14-methylhexadecanoic acid by bacteria of the genus Escherichia (Escherichia coli) was tested in the same manner as in example 1.
(§7) In this example, Escherichia coli (NBRC3972) was used as a microorganism.
(§8) Further, in this example, a bacterial suspension of 10^6 (CFU/ml) prepared by using an NB liquid medium diluted to 1/10 with ion exchange water was used as a bacterial suspension.
(§9) Note that, in this example, C12OH (1-dodecanol) was used as the metabolism controlling agent.

[4] = tested on: Escherichia coli (NBRC3972); test: Suppression of metabolite 4-methylhexanoic acid from 14-methylhexadecanoic acid
Protocol: (§10) After culture on fabric prepared in the same manner as in the above (1), 3 ml of methanol was added, and extraction was carried out under ultrasonic irradiation for 30 minutes (20° C.). The extraction liquid was mixed with (a 1000 ppm methanol solution of) an ADAM reagent of Funakoshi Co., Ltd. at 1:1 (volume ratio) and left overnight under room temperature and dark place conditions. After that, 4-methyl-3-hexenoic acid as a metabolite from 14-methylhexadecanoic acid was quantified by HPLC. The quantification conditions are as follows.
(§11) The production amount of 4-methyl-3-hexenoic acid after culture on the fabric to which each metabolism controlling agent was added was quantified, and the ratio of the production amount to that of 4-methyl-3-hexenoic acid in the case of adding no metabolism controlling agent (control) was calculated as a metabolite suppression rate (%). The higher a numerical value thereof is, the more the metabolism is suppressed. Note that the metabolite suppression rate was determined by the following formula:
(§12) Metabolite suppression rate(%)=100×[(D−C)/D] • C: production amount of metabolite of example or comparative example (μg/fabric g) • D: production amount of metabolite of control (μg/fabric g)
as §6, §7, §8
(§13) Further, in this example, 4-methylhexanoic acid was quantified as a metabolite from 14-methylhexadecanoic acid, and the metabolite suppression rate was determined in the same manner as in example 1.
as §9

[5] = tested on: Escherichia coli (NBRC3972); test: Measurement of viable bacterial count on fabric
Protocol: (§14) After culture on fabric prepared in the same manner as in the above (1), 9 mL of an LP diluent (manufactured by NIHON PHARMACEUTICAL CO., LTD.) was added, and the extraction of the bacteria was carried out under ultrasound for 10 minutes. The extraction liquid was poured and mixed to an SCD-LP agar medium (NIHON PHARMACEUTICAL CO., LTD.), and culture was thereafter carried out at 37° C.; for a day. The number of colonies obtained on each piece of the fabric was counted, and a common logarithm value thereof was measured as the viable bacterial count. […] In addition, the […], the more the viable bacterial count of the microorganism is maintained.
as §6, §7, §8, §9

[6] = tested on: Staphylococcus aureus; test: Suppression of metabolism of 14-methylhexadecanoic acid on cotton fabric; details: agent 250 μg/fabric g
Protocol: as §1, §2, §3, §4, §5
(§15) The metabolism of 14-methylhexadecanoic acid by bacteria of the genus Staphylococcus (Staphylococcus aureus) was tested in the same manner as in example 1.
(§16) In this example, Staphylococcus aureus (strain isolated from clothing) was used as a microorganism.
(§17) Further, in this example, a bacterial suspension of 10^7 (CFU/ml) prepared by using an NB liquid medium diluted to 1/10 with ion exchange water was used as a bacterial suspension.

[7] = tested on: Micrococcus aloeverae; test: as above; details: agent 250 μg/fabric g
Protocol: as §1, §2, §3, §4, §5
(§18) The metabolism of 14-methylhexadecanoic acid by bacteria of the genus Micrococcus was tested in the same manner as in example 1.
(§19) In this example, Micrococcus aloeverae (strain isolated from clothing) was used as a microorganism.
(§20) Further, in this example, a bacterial suspension of 10^7 (CFU/ml) prepared by using an SCD liquid medium (NIHON PHARMACEUTICAL CO., LTD.) diluted to 1/10 with ion exchange water was used as a bacterial suspension.
as §9

[8] = tested on: Micrococcus aloeverae; test: Measurement of viable bacterial count on fabric; details: agent 250 μg/fabric g
Protocol: as §14, §18, §19, §20, §9

[9] = tested on: Micrococcus aloeverae; test: Suppression of metabolite 2-methylbutanoic acid from 14-methylhexadecanoic acid; details: agent 250 μg/fabric g
Protocol: as §10, §11, §12, §18, §19, §20
Further, in this example, 2-methylbutanoic acid was quantified as a metabolite from 14-methylhexadecanoic acid, and the metabolite suppression rate was determined in the same manner as in example 1.
as §9

[10] = tested on: Staphylococcus aureus; test: Measurement of viable bacterial count on fabric; details: agent 250 μg/fabric g
Protocol: as §14, §15, §16, §17, §9

[11] = tested on: Staphylococcus aureus; test: Suppression of metabolite 4-methylhexanoic acid from 14-methylhexadecanoic acid; details: agent 250 μg/fabric g
Protocol: as §10, §11, §12, §15, §16, §17, §13, §9

Compound	Metabolite suppression rate (%) [1] [%]	Metabolism suppression rate (%) [2] [%]	Metabolism suppression rate (%) ([3]; agent 500 μg/fabric g)	Metabolism suppression rate (%) ([3]; agent 1000 μg/fabric g)	Metabolite suppression rate (%) ([4]; agent 500 μg/fabric g)	Metabolite suppression rate (%) ([4]; agent 1000 μg/fabric g)	Bacterial count (Log (cfu/fabric cm^2)) ([5]; agent 500 μg/fabric g)	Bacterial count (Log (cfu/fabric cm^2)) ([5]; agent 1000 μg/fabric g)	Metabolism suppression rate (%) [6] [%]	Metabolism suppression rate (%) [7] [%]	Bacterial count (Log (cfu/fabric cm^2)) [8]	Metabolite suppression rate (%) [9] [%]	Bacterial count (Log (cfu/fabric cm^2)) [10]	Metabolite suppression rate (%) [11] [%]
CCCCCCCCCCCCOCCO [Example C12E1, ethylene glycol mono-1-dodecyl ether]	41	24	–	–	–	–	–	–	–	–	–	–	–	–
CCCCCCCCCO [Example C9OH, 1-nonyl alcohol]	21	14	13	25	31	33	6.5 Log (cfu/fabric cm^2)	6.3 Log (cfu/fabric cm^2)	–	–	–	–	–	–
CCCCCCCCCCCCOCCOCCO [Example C12E2, diethylene glycol mono-1-dodecyl ether, reference compound]	–	–	−2	–	−2	–	6.5 Log (cfu/fabric cm^2)	–	7	−11	6.8 Log (cfu/fabric cm^2)	8	–	–
CCCCCCCCCCO [Example C10OH, 1-decanol]	46	51	16	38	42	75	6.5 Log (cfu/fabric cm^2)	6.4 Log (cfu/fabric cm^2)	16	33	7.0 Log (cfu/fabric cm^2)	51	5.5 Log (cfu/fabric cm^2)	35
CCCCCCCCCCCCCCCCO [Example C16OH, 1-hexadecanol]	38	24	–	18	–	27	–	6.6 Log (cfu/fabric cm^2)	16	–	–	–	6.1 Log (cfu/fabric cm^2)	20
CCCCCCCCCCCCOCCOCCOCCOCCOCCO [Example C12E5, pentaethylene glycol mono-1-dodecyl ether, reference compound]	–	–	–	–	–	–	–	–	–	−3	6.6 Log (cfu/fabric cm^2)	6	–	–
CCCCCCCCCCCCCCCCCCO [Example C18OH, 1-octadecanol, reference compound]	–	2	−15	3	–	0	6.2 Log (cfu/fabric cm^2)	5.9 Log (cfu/fabric cm^2)	−1	−7	6.8 Log (cfu/fabric cm^2)	1	5.6 Log (cfu/fabric cm^2)	–
CCCCCCCCCCCCCO [Example C13OH, 1-tridecanol]	–	–	–	–	–	–	–	–	–	41	6.7 Log (cfu/fabric cm^2)	59	–	–
CCCCCCCCCCCCCCO [Example C14OH, 1-tetradecanol]	45	14	27	67	47	77	6.7 Log (cfu/fabric cm^2)	6.5 Log (cfu/fabric cm^2)	42	–	–	–	5.6 Log (cfu/fabric cm^2)	53
